# Results: US5187163A, “Anti-viral compounds, dosage forms and methods” (Baker Norton Pharmaceuticals, Inc., priority 1992, dated 1993)
# Where a name gives a salt, the structure may show the parent alone. Read-outs that look alike come from different tables or passages of the source.
# Columns and labels:
# Assay type in all cases: cell-based
# [1] = system: Reverse transcriptase (RT); assay: Inhibition of reverse transcriptase activity in culture supernatant of HIV-infected H9 cells; conditions: for Reverse Transcriptase activity in culture supernatant: H9 cells, MOI = 1.0
# Method: *Target cells = H9 cells. MOI = 1.0. Media changes with the addition of
# fresh drug were performed at 3-4 day intervals. Results are expressed as
# CPMReverse Transcriptase activity per ml in culture supernatant. CPM
# >5,000 signifies abnormal elevations in Reverse Transcriptase activity.
# The results represent the mean of duplicate studies in one experiment.
# MT-2 cells = assay: Cytotoxicity (cell viability, trypan blue exclusion) in uninfected MT-2 cells; conditions: uninfected MT-2 cells, in words
# Method: (§1) Target MT-2 cells (an HTLV-I immortalized CD4+lymphoblastoid cell line) were propagated in growth medium (D-MEM supplemented with 15% heat-inactivated fetal bovine serum, 2mM glutamine, and 1% penicillin-streptomycin).
# (§2) MT-2 cells (2×10^5 cells per ml) were exposed to multiple drug concentrations (performed in triplicate). The medium was changed every 3-4 days, followed by the addition of fresh drug. Cell viability was determined by the trypan blue exclusion method and compared to controls without drug.
# (§3) The comparative HIV inhibitory effects of nucleosides and the novel nucleoside dimers are shown on Table 1. The 50% inhibitory dose (ID50) and 50% effective dose (ED50) of each compound were calculated using linear regression analysis from the results of a 14 day assay that monitored cell viability and the expression of HIV antigen by cellular fluorescence.
# (§4) The growth inhibitory effects of the compounds on MT-2 cells that were not exposed to the virus were compared. According to their ID50, the compounds could be classified into three major groups. […] When the cytotoxic effects of the compounds were tested against the human cell lines H9 and U937, similar toxicity profiles were seen.
# (§5) from two sets of experiments. Linear regression analysis was used to
# (§6) determine the ID50 and ED50. ID50, drug concentration
# (§7) required to reduce the number of uninfected MT2 cells by 50% on day 14.
# [2] = as above; conditions: human; day 14, uninfected MT-2 cells; mean of triplicate cultures from two sets of experiments; linear regression; read-out: ID50 (drug concentration required to reduce the number of uninfected MT2 cells by 50%)
# Method: as §1, §2, §3, §4, §5, §6, §7
# HIV (TM) [3] = assay: 4 day HIV-induced syncytium inhibition assay in MT-2 cells; conditions: for EC100: Human immunodeficiency virus 1, MT2, 96 h, read-out: concentration for complete/full protection of MT-2 cells from the formation of syncytia; for protective effect against the development of HIV-induced syncytia: among the dimers, 4 day assay, in words
# Method: An isolate of HIV (TM) was obtained from the culture supernatant of normal peripheral blood mononuclear cells infected with virus isolated from a patient with AIDS. Supernatant from H9 cells infected with HIV (TM) was aliquoted at peak reverse transcriptase activity and kept frozen at -85° C. until use. HIV (TM) infectivity assays using sequential fivefold dilutions (performed in quadruplicate) determined the infectious virus titer (Reed-Muench method) to be 10^4.5 TC ID50 per ml.
# as §1
# (§8) Target MT-2 cells were exposed to DEAE-dextran (25 ug/ml, Sigma) for 20 minutes, washed and infected with HIV (TM) (MOI=0.001) at 37° C. for 1 hour. MT-2 cells (3×10^5 per ml) were placed in growth medium and transferred to a 24-well plastic tray followed by the addition of drug. The cells were carried at 37° C. in humidified air containing 5% CO2 for 14 days. Every 3-4 days, the medium was changed and fresh drug added. At each change of medium, cells and supernatants were assayed for measures of HIV expression. Uninfected and infected MT-2 cells without exposure to drug were used as controls. All cultures were performed in triplicate on two sets of experiments.
# MT-2 cells were chosen because of their sensitivity to HIV infection with the formation of giant syncytia that are quantifiable. The cytopathic effect of HIV could be monitored as a function of the input virus inoculum. When MT-2 cells were monitored in a 14 day assay, a MOI of 0.001 gave rise to the formation of syncytia after 4 days (>400 per well) and peak reverse transcriptase levels by day 8.
# To investigate the inhibitory effects of the drugs on HIV-induced syncytia formation, the nucleoside dimers were compared to their monomers and their combinations at multiple concentrations in a 4 day syncytium inhibition assay.
# HIV (TM) [4] = assay: HIV infectivity assay in MT-2 cells (HIV antigen expression by immunofluorescence, 14 days); conditions: for EC50: read-out: ED50 (drug concentration achieving 50% inhibition of HIV expression assessed by immunofluorescence); for CTI, cytotherapeutic index (ID50/ED50): ID50/ED50, day 14, MT-2 cells; for anti-HIV activity profile according to ED50 / cytotherapeutic index, ranking: in words
# Method: An isolate of HIV (TM) was obtained from the culture supernatant of normal peripheral blood mononuclear cells infected with virus isolated from a patient with AIDS. Supernatant from H9 cells infected with HIV (TM) was aliquoted at peak reverse transcriptase activity and kept frozen at -85° C. until use.
# as §1, §8
# *The results are expressed as the arithmetic mean of triplicate cultures
# as §5
# ED50, drug concentration achieving 50% inhibition of HIV expression
# assessed by immunofluorescence on day 14.
# [5] = 1 Ug/ml, day 7, control (no drug) 11,000
# [6] = 1 Ug/ml, day 11, control (no drug) 38,000
# [7] = 1 Ug/ml, day 14, control (no drug) 34,000
# [8] = 5 Ug/ml, day 7, control (no drug) 11,000
# [9] = 5 Ug/ml, day 11, control (no drug) 38,000
# [10] = 5 Ug/ml, day 14, control (no drug) 34,000
# [11] = Human immunodeficiency virus 1, MT2, 336 h
Compound,"Reverse Transcriptase activity in culture supernatant [1, 5]","Reverse Transcriptase activity in culture supernatant [1, 6]","Reverse Transcriptase activity in culture supernatant [1, 7]","Reverse Transcriptase activity in culture supernatant [1, 8]","Reverse Transcriptase activity in culture supernatant [1, 9]","Reverse Transcriptase activity in culture supernatant [1, 10]",toxicity group according to ID50 (MT-2 cells),CC50 at 336 h [2] [µM],EC100 (HIV (TM) [3]) [µM],protective effect against the development of HIV-induced syncytia (HIV (TM) [3]),EC50 (HIV (TM) [4]; [11]) [µM],"CTI, cytotherapeutic index (ID50/ED50) (HIV (TM) [4]; 20160 min)",anti-HIV activity profile according to ED50 (HIV (TM) [4]),"cytotherapeutic index, ranking (HIV (TM) [4])",further results
"Cc1cn([C@H]2C[C@H](N=[N+]=[N-])[C@@H](COP(=O)(O)OC[C@@H]3CC[C@H](n4cnc5c(N)ncnc54)O3)O2)c(=O)[nH]c1=O [AZT-P-ddA, azido-beta-thymidine-2',3'-dideoxyadenosine phosphate ammonium salt]","1,500 CPM per ml","12,000 CPM per ml","26,500 CPM per ml",500 CPM per ml,500 CPM per ml,500 CPM per ml,moderate toxicity,200,0.5,strongest protective effect,0.8,250,most potent,highest,activity in RT assay compared with AZT ([1]; in words): comparable to that of AZT
Cc1cn([C@H]2C[C@H](N=[N+]=[N-])[C@@H](COP(=O)(OCCC#N)OC[C@@H]3CC[C@H](n4cnc5c(N)ncnc54)O3)O2)c(=O)[nH]c1=O (stereo partly shown) [AZT-P(CyE)-ddA],"6,000 CPM per ml","43,000 CPM per ml","36,000 CPM per ml","1,000 CPM per ml","4,500 CPM per ml","12,000 CPM per ml",moderate toxicity,210,0.5,strongest protective effect,0.7,300,most potent,highest,
"Nc1ncnc2c1ncn2[C@H]1CC[C@@H](CO)O1 [ddA, 2',3'-dideoxyadenosine, reference compound]",,,,,,,least toxicity,400,10,,7,57,weaker activities,,"Reverse Transcriptase activity in culture supernatant ([1]; 1 uM, day 7, control (no drug) 11,000): 5,500 CPM per ml; Reverse Transcriptase activity in culture supernatant ([1]; 1 uM, day 11, control (no drug) 38,000): 45,000 CPM per ml; Reverse Transcriptase activity in culture supernatant ([1]; 1 uM, day 14, control (no drug) 34,000): 39,500 CPM per ml; Reverse Transcriptase activity in culture supernatant ([1]; 10 uM, day 7, control (no drug) 11,000): 500 CPM per ml; Reverse Transcriptase activity in culture supernatant ([1]; 10 uM, day 11, control (no drug) 38,000): 3,000 CPM per ml; Reverse Transcriptase activity in culture supernatant ([1]; 10 uM, day 14, control (no drug) 34,000): 4,500 CPM per ml"
"Cc1cn(C2CC(N=[N+]=[N-])C(COP(=O)(O)OCC3OC(n4cc(C)c(=O)[nH]c4=O)CC3N=[N+]=[N-])O2)c(=O)[nH]c1=O (stereo not shown) [AZT-P-AZT, reference compound]",,,,,,,highest toxicity,60,,,1.5,40,most potent,,
"O=c1[nH]cnc2c1ncn2[C@H]1CC[C@@H](CO)O1 [ddI, 2',3'-dideoxyinsine, reference compound]",,,,,,,least toxicity,450,,,,60,weaker activities,,"EC50 (HIV (TM) [4]; day 14, HIV-infected MT-2 cells, MOI 0.001, mean of triplicate cultures from two sets of experiments, linear regression, 20160 min): 7.5 µM"
"Cc1cn([C@H]2C[C@H](N=[N+]=[N-])[C@@H](COP(=O)(O)OC[C@@H]3CC[C@H](n4cnc5c(=O)[nH]cnc54)O3)O2)c(=O)[nH]c1=O [AZT-P-ddI, azido-β-thymidine-2',3'-dideoxyinosine phosphate ammonium salt]","1,000 CPM per ml","3,000 CPM per ml","10,000 CPM per ml","1,000 CPM per ml","1,500 CPM per ml","25,000 CPM per ml",moderate toxicity,240,,,1,240,most potent,highest,duration of inhibition of the enzyme (RT) ([1]; 1 ug/ml): at least 11 days
